Assay results reported in US20240368150A1 (Hoffmann-La Roche Inc., priority 2021, published 2024).
Like-named read-outs stand apart in the source and are kept apart here.

Experiments:
[1] = system: primary human T-cells
[2] = system: primary human T-cells; assay: Proliferation assay after 5 days (CellTiter-Glo, CD3 stimulation; PBS counter screen); type: cell-based; details: CD3 stimulation; for Emax / Emax proliferation (% activation): 5 days, normalized to reference compound A1 as stimulator control = 100%, DMSO neutral control; for Emax: read-out: Emax proliferation (% activation); for EC50: primary human T-cells, CellTiter-Glo after 5 days, EC50 of fitted sigmoidal curve, read-out: Tcell Proliferation CD3 EC50
How it was run: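 Read-out: CellTiter-Glo 2.0 luminescence (ATP ∝ cell number) at day 5 after compound addition. Compounds activating unstimulated cells or reducing viability flagged.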

| Structure (SMILES) | EC50 [1] [µM] | Emax ([2]; Homo sapiens, T-cell, 120 h) [%] | EC50 ([2]; Homo sapiens, T-cell, 120 h) [µM] | Emax proliferation (% activation) [2] [% activation] | EC50 [2] [µM] |
| --- | --- | --- | --- | --- | --- |
| CC1(c2nc(-c3cc4c(cc3F)[S+]([O-])C[C@H](N)C(=O)N4Cc3ccc(Cl)cc3)no2)CC[N+]([O-])(CC(F)(F)F)CC1 (stereo partly drawn) [Example 308, (3R)-3-amino-5-[(4-chlorophenyl)methyl]-8-fluoro-7-[5-[4-methyl-1-oxido-1-(2,2,2-trifluoroethyl)piperidin-1-ium-4-yl]-1,2,4-oxadiazol-3-yl]-1-oxo-2,3-dihydro-1λ^4,5-benzothiazepin-4-one] | > 10 | 61 | 7.63 | – | – |
| CC(C)(C)c1nnc(-c2cc3c(cc2F)S(=O)(=O)C[C@H](N)C(=O)N3Cc2ccc(CN)cc2)o1 [Example 226, (3R)-3-amino-5-[[4-(aminomethyl)phenyl]methyl]-7-(5-tert-butyl-1,3,4-oxadiazol-2-yl)-8-fluoro-1,1-dioxo-2,3-dihydro-1λ^6,5-benzothiazepin-4-one] | > 20 | 25 | > 20 | – | – |
| N[C@H]1C[S+]([O-])c2ccc(-c3nnc(CC(F)(F)F)o3)cc2N(Cc2ccc(OC(F)(F)F)cc2)C1=O (single isomer, unassigned; epimer b) [Example 428] | 1.58 | – | – | 38 | 3.28 |
| N[C@H]1CS(=O)(=O)c2cc(F)c(-c3nnc(NCC(F)(F)F)o3)cc2N(Cc2ccc(Cl)cc2)C1=O [Example 487, (3R)-3-amino-5-[(4-chlorophenyl)methyl]-8-fluoro-1,1-dioxo-7-[5-(2,2,2-trifluoroethylamino)-1,3,4-oxadiazol-2-yl]-2,3-dihydro-1λ^6,5-benzothiazepin-4-one] | 8.6 | 112 | 1.19 | – | – |
| CC(C)(C)c1nnc(-c2ccc3c(c2)N(Cc2ccc(S(=O)(=O)C(F)(F)F)cc2)C(=O)[C@@H](N)CS3(=O)=O)o1 [Example 123, (3R)-3-amino-7-(5-tert-butyl-1,3,4-oxadiazol-2-yl)-1,1-dioxo-5-[[4-(trifluoromethylsulfonyl)phenyl]methyl]-2,3-dihydro-1λ^6,5-benzothiazepin-4-one] | 1.65 | 82 | > 2.73 | – | – |
| CN(C)C(=O)c1nc(-c2cc3c(cc2F)S(=O)(=O)C[C@H](N)C(=O)N3Cc2ccc(OC(F)(F)F)cc2)no1 [Example 328, 3-[(3R)-3-amino-8-fluoro-1,1,4-trioxo-5-[[4-(trifluoromethoxy)phenyl]methyl]-2,3-dihydro-1λ^6,5-benzothiazepin-7-yl]-N,N-dimethyl-1,2,4-oxadiazole-5-carboxamide] | 1.08 | 120 | 1.96 | – | – |
| CC(C)(C)c1nnc(-c2cc3c(cc2F)S(=O)(=O)C[C@H](N)C(=O)N3Cc2ccc(OCCCCCCCCCCCN)cc2)o1 [Example 257, (3R)-3-amino-5-[[4-(11-aminoundecoxy)phenyl]methyl]-7-(5-tert-butyl-1,3,4-oxadiazol-2-yl)-8-fluoro-1,1-dioxo-2,3-dihydro-1λ^6,5-benzothiazepin-4-one] | > 20 | 142 | < 0.162 | – | – |
| COC(=O)N1CCC(c2nc(-c3cc4c(cc3F)S(=O)(=O)C[C@H](N)C(=O)N4Cc3ccc(OC(C)C)cc3)no2)C1 (stereo partly drawn) [Example 349] | 1.33 | 124 | 0.399 | – | – |
| COC(F)(c1nc(-c2cc3c(cc2F)[S+]([O-])C[C@H](N)C(=O)N3Cc2ccc(Cl)cc2)no1)C(F)(F)F (single isomer, unassigned; epimer b) [Example 339] | 1.3 | – | – | 141 | 0.421 |
| N[C@H]1CS(=O)(=O)c2cc(F)c(-c3nnc(N4CC5(CCC5)C4)o3)cc2N(Cc2ccc(Cl)cc2)C1=O [Example 474] | 0.251 | 138 | 0.135 | – | – |
| N[C@H]1CS(=O)(=O)c2cc(F)c(-c3nnc(C4CCC4(F)F)o3)cc2N(Cc2ccc(Cl)cc2)C1=O (stereo partly drawn) [Example 81, (3R)-3-Amino-5-[(4-chlorophenyl)methyl]-7-[5-(2,2-difluorocyclobutyl)-1,3,4-oxadiazol-2-yl]-8-fluoro-1,1-dioxo-2,3-dihydro-1λ^6,5-benzothiazepin-4-one] | 1.27 | 185 | 0.521 | – | – |
| CC(C)(C)c1nnc(-c2cc3c(cc2F)S(=O)(=O)C[C@H](N)C(=O)N3Cc2ccc(Cl)cc2CN)o1 [Example 256, (3R)-3-amino-5-[[2-(aminomethyl)-4-chloro-phenyl]methyl]-7-(5-tert-butyl-1,3,4-oxadiazol-2-yl)-8-fluoro-1,1-dioxo-2,3-dihydro-1λ^6,5-benzothiazepin-4-one] | > 20 | 3 | > 20 | – | – |
| CS(=O)(=O)N1CC(c2nnc(-c3cc4c(cc3F)S(=O)(=O)C[C@H](N)C(=O)N4Cc3ccc(Cl)cc3)o2)CC(F)(F)C1 (stereo partly drawn) [Example 164, (3R)-3-amino-5-[(4-chlorophenyl)methyl]-7-[5-(5,5-difluoro-1-methylsulfonyl-3-piperidyl)-1,3,4-oxadiazol-2-yl]-8-fluoro-1,1-dioxo-2,3-dihydro-1λ^6,5-benzothiazepin-4-one] | 0.708 | 82 | 0.292 | – | – |
| CCCC(=O)N[C@H]1CS(=O)(=O)c2cc(F)c(-c3nnc(C(C)(C)C)o3)cc2N(Cc2ccc(Cl)cc2)C1=O [Example 261, N-[(3R)-7-(5-tert-butyl-1,3,4-oxadiazol-2-yl)-5-[(4-chlorophenyl)methyl]-8-fluoro-1,1,4-trioxo-2,3-dihydro-1λ^6,5-benzothiazepin-3-yl]butanamide] | 2.69 | 115 | 0.428 | – | – |
| N[C@H]1CS(=O)(=O)c2cc(F)c(-c3noc(C(N)(C4CCOCC4)C(F)(F)F)n3)cc2N(Cc2ccc(Cl)cc2)C1=O (stereo partly drawn) [Example 294, (3R)-3-amino-7-[5-(1-amino-2,2,2-trifluoro-1-tetrahydropyran-4-yl-ethyl)-1,2,4-oxadiazol-3-yl]-5-[(4-chlorophenyl)methyl]-8-fluoro-1,1-dioxo-2,3-dihydro-1λ^6,5-benzothiazepin-4-one] | 0.373 | 143 | 0.261 | – | – |
| N[C@H]1CS(=O)(=O)c2cc(F)c(-c3nnc(-c4ccccc4)o3)cc2N(Cc2ccc(Cl)cc2)C1=O [Example 97, (3R)-3-amino-5-[(4-chlorophenyl)methyl]-8-fluoro-1,1-dioxo-7-(5-phenyl-1,3,4-oxadiazol-2-yl)-2,3-dihydro-1λ^6,5-benzothiazepin-4-one] | 1.04 | 115 | 0.52 | – | – |
| CCn1cnc(-c2cc3c(cc2F)S(=O)(=O)C[C@H](N)C(=O)N3Cc2ccc(Cl)cc2)n1 [Example 285, (3R)-3-amino-5-[(4-chlorophenyl)methyl]-7-(1-ethyl-1,2,4-triazol-3-yl)-8-fluoro-1,1-dioxo-2,3-dihydro-1λ^6,5-benzothiazepin-4-one] | 9.37 | 60 | 5.49 | – | – |
| CC(C)(C)c1nnc(-c2ccc3c(c2)N(Cc2ccc(OCC(F)(F)F)cc2)C(=O)[C@@H](N)CS3(=O)=O)o1 [Example 429, (3R)-3-amino-7-(5-tert-butyl-1,3,4-oxadiazol-2-yl)-1,1-dioxo-5-[[4-(2,2,2-trifluoroethoxy)phenyl]methyl]-2,3-dihydro-1λ^6,5-benzothiazepin-4-one] | 0.96 | 103 | 4.85 | – | – |
| CN1CC(C)(c2nnc(-c3cc4c(cc3F)S(=O)(=O)C[C@H](N)C(=O)N4Cc3ccc(Cl)cc3)o2)C1 [Example 155, (3R)-3-amino-5-[(4-chlorophenyl)methyl]-7-[5-(1,3-dimethylazetidin-3-yl)-1,3,4-oxadiazol-2-yl]-8-fluoro-1,1-dioxo-2,3-dihydro-1λ^6,5-benzothiazepin-4-one] | 0.778 | 72 | 4.18 | – | – |
| N#CC1(c2nnc(-c3cc4c(cc3F)S(=O)(=O)C[C@H](N)C(=O)N4Cc3ccc(Cl)cc3)o2)CC1 [Example 118, 1-[5-[(3R)-3-amino-5-[(4-chlorophenyl)methyl]-8-fluoro-1,1,4-trioxo-2,3-dihydro-1λ^6,5-benzothiazepin-7-yl]-1,3,4-oxadiazol-2-yl]cyclopropanecarbonitrile] | 0.228 | 99 | 0.669 | – | – |
| CC(C)(C)c1nnc(-c2cc3c(cc2F)S(=O)(=O)C[C@H](N)C(=O)N3Cc2ccc(OC3CCCC3)nc2)o1 [Example 248, (3R)-3-amino-7-(5-tert-butyl-1,3,4-oxadiazol-2-yl)-5-[[6-(cyclopentoxy)-3-pyridyl]methyl]-8-fluoro-1,1-dioxo-2,3-dihydro-1λ^6,5-benzothiazepin-4-one] | 0.14 | 157 | 0.44 | – | – |
| COC(=O)N1CCC2CC2(c2nnc(-c3cc4c(cc3F)S(=O)(=O)C[C@H](N)C(=O)N4Cc3ccc(Cl)cc3)o2)C1 (stereo partly drawn) [Example 178, methyl 1-[5-[(3R)-3-amino-5-[(4-chlorophenyl)methyl]-8-fluoro-1,1,4-trioxo-2,3-dihydro-1λ^6,5-benzothiazepin-7-yl]-1,3,4-oxadiazol-2-yl]-3-azabicyclo[4.1.0]heptane-3-carboxylate] | 0.333 | 105 | 0.206 | – | – |
| N[C@H]1CS(=O)(=O)c2ccc(-c3nnc(C4CC5(CC(O)C5)C4)o3)cc2N(Cc2ccc(Cl)cc2)C1=O (stereo partly drawn) [Example 387, (3R)-3-amino-5-[(4-chlorophenyl)methyl]-7-[5-(2-hydroxyspiro[3.3]heptan-6-yl)-1,3,4-oxadiazol-2-yl]-1,1-dioxo-2,3-dihydro-1λ^6,5-benzothiazepin-4-one] | 2.28 | 157 | 1.12 | – | – |
